Measured values published in patent EP4588470A1, “PHARMACEUTICAL COMPOSITION COMPRISING CURCUMIN AND THE PREPARATION THEREOF” (priority 2024, dated 2025).

Columns and labels:
[1] = test system: human circulating tumor cells; assay: drug sensitivity testing (CTC assay) on circulating tumor cells cultivated from patient blood; type: cell-based
From the text: Determination of the effect of a pharmaceutical composition according to the present invention, on human circulating tumor cells in blood of nine patients suffering from different types of carcinoma as given in the following Table IV. The composition of the pharmaceutical composition is the same as used in Example 4.
The cells from the collected blood were cultivated in a usual manner with an agent. The agent was either the pharmaceutical composition according to the present invention, or Resveratrol-ACTIF®, which is a combination preparation comprising resveratrol and at least one gingerol, that were added to the cell culture in a concentration of either 50% 100% and 200%.
The same EDTA blood sample used for the verification of the CTC burden was used for drug sensitivity testing.
After enrichment of mononuclear cells by density gradient centrifugation, CD45 depletion and erythrolysis the remaining cells were suspended in cell culture medium and incubated for 4 days with and without the tested compounds. Compounds were tested at three tissue culture doses (TCD), namely 50%, 100% and 200%.. […]
The same experiment was performed with human circulating tumor cells, prepared from a tumor patient by using Resveratrol-ACTIF® and the pharmaceutical composition according to the present invention. […] The results vary from patient to patient and therefore have to be determined individually. […]

[2] = in buffer at pH 7; cited from earlier work
[3] = several animal studies; cited from earlier work

SMILES: N.N.O=C([O-])C1(C(=O)[O-])CCC1.[Pt+2] [Carboplatin]
- response of tumor cell-inhibition ([1]; patient 7, Figure 8, already with the 50% TCD (7,9 µg/ml)): maximal response has been reached

SMILES: CCC(=O)C(CC(C)N(C)C)(c1ccccc1)c1ccccc1 (stereo not shown) [Methadon]
- antitumoral capacity among the tested chemotherapeutics [1]: highest antitumoral capacity

SMILES: COc1cc(C=CC(=O)CC(=O)C=Cc2ccc(O)c(OC)c2)ccc1O [curcumin, 1,7-bis(4-hydroxy-3-methoxyphenyl)-1,6-heptadiene-3,5-dione]
- solubility in aqueous solution [2]: less than 0.03 M
- oral curcumin excreted in the faeces [3]: 90%
